Test results reported in patent US20250230193A1, “CYCLIC COMPOUND HAVING SELECTIVE KRAS INHIBITORY EFFECT ON HRAS AND NRAS” (CHUGAI SEIYAKU KABUSHIKI KAISHA, priority 2022, published 2025).

How the values were obtained:
[1] = target: GDP-bound NRAS wild-type protein (Homo sapiens, UniProt P01111); experiment: Binding to NRAS by surface plasmon resonance (SPR), Single Cycle Kinetics; conditions: for NRAS/KRAS (ratio of KD value with respect to GDP-bound NRAS wild-type protein to KD value with respect to KRAS): class symbols
[2] = target: GDP-bound HRAS wild-type protein (Homo sapiens, UniProt P01112); experiment: Binding to HRAS by surface plasmon resonance (SPR), Single Cycle Kinetics; conditions: for HRAS/KRAS (ratio of KD value with respect to GDP-bound HRAS wild-type protein to KD value with respect to KRAS): class symbols
[3] = KD ratio, GDP-bound NRAS wild-type vs GDP-bound KRAS wild-type, SPR
[4] = KD ratio, GDP-bound HRAS wild-type vs GDP-bound KRAS wild-type, SPR

Chain of GDP-bound HRAS wild-type protein (P01112 whole entry): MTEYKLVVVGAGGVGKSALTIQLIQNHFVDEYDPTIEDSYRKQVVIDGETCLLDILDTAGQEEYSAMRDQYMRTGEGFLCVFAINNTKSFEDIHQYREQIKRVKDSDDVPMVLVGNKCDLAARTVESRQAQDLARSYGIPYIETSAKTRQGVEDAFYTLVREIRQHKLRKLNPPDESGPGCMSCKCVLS
Chain of GDP-bound NRAS wild-type protein (P01111 whole entry): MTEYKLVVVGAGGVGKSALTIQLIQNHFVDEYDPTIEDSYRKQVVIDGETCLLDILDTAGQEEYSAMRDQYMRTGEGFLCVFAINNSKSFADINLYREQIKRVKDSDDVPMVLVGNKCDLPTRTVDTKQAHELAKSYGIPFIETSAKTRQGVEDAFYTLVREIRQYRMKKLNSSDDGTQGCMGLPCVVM

| Structure (SMILES) | NRAS/KRAS (ratio of KD value for NRAS to KD value for KRAS) [1, 3] | HRAS/KRAS (ratio of KD value for HRAS to KD value for KRAS) [2, 4] | other results |
| --- | --- | --- | --- |
| CC[C@H](C)[C@@H]1NC(=O)[C@H](CC(C)C)N(C)C(=O)C[C@@H](C(=O)N(C)C)N(C)C(=O)[C@H](C2CCCC2)N(C)C(=O)C2(CCC2)NC(=O)[C@@H]2C[C@@H](C)CN2C(=O)[C@H](CCc2ccc(C(F)(F)F)c(OC)c2)NC(=O)CN(C)C(=O)[C@H](Cc2ccc(C)cc2)N2CC/C=C\C[C@@H](C2=O)N(C)C(=O)CN(C)C1=O [PP1867] | A (a compound having 10 or more and less than 20 is denoted as A) | B (a compound having 3 or more and less than 10 is denoted as B) | – |
| CCO[C@@H]1C[C@H]2C(=O)NC3(CC(C)(C)C3)C(=O)N(C)[C@@H](C3CCCC3)C(=O)N3CCC[C@@H]3CC(=O)N(C)[C@@H](CC)C(=O)N[C@@H]([C@@H](C)CC)C(=O)N(C)CC(=O)N(C)[C@H]3C/C=C\CCN(C3=O)[C@@H](CC3CCCCC3)C(=O)N(C)CC(=O)N[C@@H](CCc3cc(F)c(C(F)(F)F)c(F)c3)C(=O)N2C1 [PP1620] | B (a compound having 3 or more and less than 10 is denoted as B) | B (a compound having 3 or more and less than 10 is denoted as B) | – |
| CC[C@H](C)[C@@H]1NC(=O)[C@H](COC)N(C)C(=O)C[C@@H](C(=O)N2CCOCC2)N(C)C(=O)[C@H](C2CCCC2)N(C)C(=O)C2(CCC2)NC(=O)[C@@H]2CCN2C(=O)[C@H](CCc2cc(F)c(C(F)(F)F)c(F)c2)NC(=O)CN(C)C(=O)[C@H](Cc2ccc(C(F)(F)F)cc2)N2CCCCC[C@@H](C2=O)N(C)C(=O)CN(C)C1=O [PP0840] | – | – | NRAS/KRAS (ratio of KD value with respect to NRAS to KD value with respect to KRAS) [1, 3]: B (a compound having 3 or more and less than 10 is denoted as B); HRAS/KRAS (ratio of KD value with respect to HRAS to KD value with respect to KRAS) [2, 4]: B (a compound having 3 or more and less than 10 is denoted as B) |
| CCC[C@H]1C(=O)N[C@@H]([C@@H](C)CC)C(=O)N(C)CC(=O)N(C)[C@H]2C/C=C\CCN(C2=O)[C@@H](Cc2ccc(C)cc2)C(=O)N(C)CC(=O)N[C@@H](CCc2ccc(C(F)(F)F)c(Cl)c2)C(=O)N2C[C@H](OCC)C[C@H]2C(=O)NC2(CCC2)C(=O)N(C)[C@@H](C2CCCC2)C(=O)N(C)[C@H](C(=O)N(C)CC)CC(=O)N1C [PP1895] | A (a compound having 10 or more and less than 20 is denoted as A) | B (a compound having 3 or more and less than 10 is denoted as B) | – |
| CCO[C@@H]1C[C@H]2C(=O)NC3(CC(F)(F)C3)C(=O)N(C)[C@@H](C(CC)CC)C(=O)N3CCC[C@@H]3CC(=O)N(C)[C@@H](CC3CC3)C(=O)N[C@@H]([C@@H](C)CC)C(=O)N(C)CC(=O)N(C)[C@H]3C/C=C\CCN(C3=O)[C@@H](Cc3ccc(C(F)(F)F)cc3)C(=O)N(C)CC(=O)N[C@@H](CCc3cc(F)c(C(F)(F)F)c(F)c3)C(=O)N2C1 [PP1614] | A (a compound having 10 or more and less than 20 is denoted as A) | A (a compound having 10 or more and less than 20 is denoted as A) | – |
| CCC[C@H]1C(=O)N[C@@H]([C@@H](C)CC)C(=O)N(C)CC(=O)N(C)[C@H]2C/C=C\CCN(C2=O)[C@@H](Cc2ccc(C(F)(F)F)cc2)C(=O)N(C)CC(=O)N[C@@H](CCc2ccc(Cl)c(OC)c2)C(=O)N2C[C@H](OCC)C[C@H]2C(=O)NC2(CC(C)(C)C2)C(=O)N(C)[C@@H](C(CC)CC)C(=O)N(C)[C@H](C(=O)N(C)C)CC(=O)N1C [PP2789] | – | – | NRAS/KRAS (ratio of KD value with respect to GDP-bound NRAS wild-type protein to KD value with respect to KRAS) [1]: AA (a compound having 20 or more is denoted as AA); HRAS/KRAS (ratio of KD value with respect to GDP-bound HRAS wild-type protein to KD value with respect to KRAS) [2]: A (a compound having 10 or more and less than 20 is denoted as A) |
| CCC[C@H]1C(=O)N[C@@H]([C@@H](C)CC)C(=O)N(C)CC(=O)N(C)[C@H]2C/C=C\CCN(C2=O)[C@@H](Cc2ccc(C(F)(F)F)cc2)C(=O)N(C)CC(=O)N[C@@H](CCc2ccc(C(F)(F)F)c(Cl)c2)C(=O)N2C[C@H](OCC)C[C@H]2C(=O)NC2(CC(C)(C)C2)C(=O)N(C)[C@@H](CC(C)(C)C)C(=O)N(C)[C@H](C(=O)N(C)C)CC(=O)N1C [PP2969] | – | – | NRAS/KRAS (ratio of KD value with respect to GDP-bound NRAS wild-type protein to KD value with respect to KRAS) [1]: AA (a compound having 20 or more is denoted as AA); HRAS/KRAS (ratio of KD value with respect to GDP-bound HRAS wild-type protein to KD value with respect to KRAS) [2]: A (a compound having 10 or more and less than 20 is denoted as A) |
